In ChEMBL document CHEMBL1147192, “New GABA-modulating 1,2,4-oxadiazole derivatives and their anticonvulsant activity” (Eur J Med Chem, 2007):

Key:
Rattus norvegicus [1] = test: Anticonvulsant activity in orally dosed Wistar rat after 2 hrs by PTZ test; format: functional; conditions: po
Rattus norvegicus [2] = test: Anticonvulsant activity in orally dosed Wistar rat after 2 hrs by MES test; format: functional; conditions: po
Rattus norvegicus [3] = test: Neurotoxicity in orally dosed Wistar rat after 2 hrs by RotoRod test; format: toxicity, organism-based; conditions: in vivo, po
[4] = Potentiation of GABA-induced current in rat cortical neurons at 100 uM by whole-cell patch clamp technique; format: functional
Rattus norvegicus [5] = species on record: Rattus norvegicus; conditions: Membrane, 10 uM
Rattus norvegicus [6] = test: Anticonvulsant activity in orally dosed Wistar rat after 1 hr by PTZ test; format: functional; conditions: po
Rattus norvegicus [7] = test: Anticonvulsant activity in orally dosed Wistar rat after 1 hr by MES test; format: functional; conditions: po
Rattus norvegicus [8] = test: Neurotoxicity in orally dosed Wistar rat after 1 hr by RotoRod test; format: toxicity, organism-based; conditions: in vivo, po
[9] = Inhibition of voltage dependent sodium current in rat cortical neurons at 100 uM by whole-cell patch clamp technique; format: functional
[10] = Potentiation of GABA-induced current in rat cortical neurons at 10 uM by whole-cell patch clamp technique; format: functional
Rattus norvegicus [11] = test: Anticonvulsant activity in orally dosed Wistar rat after 0.5 hrs by MES test; format: functional; conditions: po
Rattus norvegicus [12] = test: Anticonvulsant activity in orally dosed Wistar rat after 4 hrs by MES test; format: functional; conditions: po
[13] = Inhibition of voltage dependent sodium current in rat cortical neurons at 10 uM by whole-cell patch clamp technique; format: functional
Rattus norvegicus [14] = test: Anticonvulsant activity in orally dosed Wistar rat after 3 hrs by PTZ test; format: functional; conditions: po
Rattus norvegicus [15] = test: Neurotoxicity in orally dosed Wistar rat after 0.5 hrs by RotoRod test; format: toxicity, organism-based; conditions: in vivo, po
[16] = Displacement of [3H]flunitrazepam from benzodiazepine receptor in rat neuronal membranes at 10 uM
Rattus norvegicus [17] = test: Neurotoxicity in orally dosed Wistar rat after 4 hrs by RotoRod test; format: toxicity, organism-based; conditions: in vivo, po
Rattus norvegicus [18] = test: Anticonvulsant activity in orally dosed Wistar rat after 0.3 hrs by PTZ test; format: functional; conditions: po
Rattus norvegicus [19] = test: Anticonvulsant activity in orally dosed Wistar rat after 0.5 hr by PTZ test; format: functional; conditions: po

Fc1ccccc1-c1noc(Cn2cncn2)n1
ED50 (Rattus norvegicus [1]): < 50 mg/kg | ED50 (Rattus norvegicus [2]): 44.3 mg/kg | ED50 (Rattus norvegicus [3]): < 250 mg/kg | Activity [4]: 191% | inhibition (Rattus norvegicus [5]): 2.2%

Fc1cccc(-c2noc(Cn3cncn3)n2)c1
ED50 (Rattus norvegicus [6]): 39.2 mg/kg | ED50 (Rattus norvegicus [7]): 26.2 mg/kg | ED50 (Rattus norvegicus [8]): 128 mg/kg | Activity [4]: 212% | inhibition at 100 µM [9]: 12% | inhibition (Rattus norvegicus [5]): -1.6%

c1ccc(-c2nc(Cn3cncn3)no2)cc1
ED50 (Rattus norvegicus [6]): 25.5 mg/kg | ED50 (Rattus norvegicus [7]): 14.6 mg/kg | ED50 (Rattus norvegicus [8]): 335 mg/kg | Activity [4]: 210% | Activity [10]: 131% | inhibition at 100 µM [9]: 9% | inhibition (Rattus norvegicus [5]): -3.1%

Clc1ccc(-c2noc(Cn3cncn3)n2)cc1
ED50 (Rattus norvegicus [1]): 29.5 mg/kg | ED50 (Rattus norvegicus [7]): 21.8 mg/kg | ED50 (Rattus norvegicus [11]): 47.2 mg/kg | ED50 (Rattus norvegicus [8]): < 100 mg/kg | Activity [4]: 553% | Activity [10]: 141% | inhibition at 100 µM [9]: 31% | inhibition (Rattus norvegicus [5]): -8%

c1ccc(-c2noc(Cn3cncn3)n2)cc1
ED50 (Rattus norvegicus [1]): 37 mg/kg | ED50 (Rattus norvegicus [12]): 13.1 mg/kg | ED50 (Rattus norvegicus [3]): 77 mg/kg | Activity [4]: 286% | inhibition at 100 µM [9]: 8% | inhibition (Rattus norvegicus [5]): 2.7%

c1ccc(-c2noc(Cn3ccnc3)n2)cc1
ED50 (Rattus norvegicus [2]): 5.8 mg/kg | Activity [4]: 134% | inhibition at 100 µM [9]: 83% | inhibition at 10 µM [13]: 30% | inhibition (Rattus norvegicus [5]): 0.6%

Clc1ccc(-c2nc(Cn3cncn3)no2)cc1
ED50 (Rattus norvegicus [6]): > 100 mg/kg

Cc1cccc(-c2nc(Cn3cncn3)no2)c1
ED50 (Rattus norvegicus [14]): > 50 mg/kg | ED50 (Rattus norvegicus [11]): < 50 mg/kg | ED50 (Rattus norvegicus [15]): > 50 mg/kg

CN1C(=O)CN=C(c2ccccc2)c2cc(Cl)ccc21 [DIAZEPAM]
Ki [16]: 6.8 nM | Activity [10]: 216% | inhibition (Rattus norvegicus [5]): > 99%

Fc1ccc(-c2nc(Cn3cncn3)no2)cc1
ED50 (Rattus norvegicus [17]): < 150 mg/kg | ED50 (Rattus norvegicus [18]): 15.2 mg/kg

Clc1ccc(-c2noc(Cn3ccnc3)n2)cc1
ED50 (Rattus norvegicus [8]): > 500 mg/kg | Activity [4]: 298% | Activity [10]: 103% | inhibition at 100 µM [9]: 72% | inhibition (Rattus norvegicus [5]): 0.2%

Fc1cccc(-c2nc(Cn3cncn3)no2)c1
ED50 (Rattus norvegicus [6]): 73.9 mg/kg | ED50 (Rattus norvegicus [15]): < 250 mg/kg

Cc1ccc(-c2noc(Cn3cncn3)n2)cc1
ED50 (Rattus norvegicus [6]): 76.5 mg/kg | ED50 (Rattus norvegicus [2]): > 70 mg/kg | ED50 (Rattus norvegicus [8]): 171 mg/kg

Cc1cccc(-c2noc(Cn3cncn3)n2)c1
ED50 (Rattus norvegicus [19]): 95.9 mg/kg | ED50 (Rattus norvegicus [8]): 219 mg/kg | Activity [4]: 387% | Activity [10]: 110% | inhibition at 100 µM [9]: 22% | inhibition (Rattus norvegicus [5]): -1.1%
